Measurements reported in ChEMBL document CHEMBL5634166, “Structural modification of tanshinone IIA and their α-glucosidase inhibitory activity” (Bioorg Med Chem Lett, 2024).
The source made the active and inactive calls. No cut-off for these calls is given here.

Assays:
Alpha-glucosidase [1] = molecular target: T1, Alpha-glucosidase (Saccharomyces cerevisiae S288c, UniProt P53341+P38158+P07265); test: Inhibition of alpha-glucosidase (unknown origin); assay type: protein assay, Homo sapiens
Alpha-glucosidase [2] = molecular target: T1, Alpha-glucosidase; test: Inhibition of yeast alpha-glucosidase; assay type: protein assay
[3] = molecular target: T2, Alpha-glucosidase (Saccharomyces cerevisiae S288c) (UniProt P53341+P38158+P07265); test: Inhibition of yeast alpha glucosidase at 50 uM relative to control; assay type: protein assay
Alpha-glucosidase [4] = molecular target: T1, Alpha-glucosidase; test: Inhibition of Saccharomyces cerevisiae alpha-glucosidase using p-nitrophenyl-alpha-D-glucopyranoside as substrate preincubated for 5 mins followed by substrate addition and measured after 30 mins by spectrophotometric analysis; assay type: protein assay
Alpha-glucosidase [5] = molecular target: T1, Alpha-glucosidase; test: Binding affinity to yeast alpha glucosidase assessed as inhibition constant; assay type: protein assay
[6] = molecular target: T2, Alpha-glucosidase (Saccharomyces cerevisiae S288c); test: Competitive inhibition of yeast alpha-glucosidase assessed as […] with constant Vmax by Lineweaver-Burk plot analysis; assay type: protein assay
[7] = molecular target: T2, Alpha-glucosidase (Saccharomyces cerevisiae S288c); test: Potency index, ratio of acarbose IC50 to test compound IC50 for inhibition of yeast alpha glucosidase; assay type: protein assay

SMILES	IC50 (Alpha-glucosidase [2]) [µM]	inhibition [3] [%]	other results
Oc1ccc(/C=N/c2nnc(-c3ccc(O)cc3)o2)cc1			IC50 (Alpha-glucosidase [1]): 0.3 µM
Cc1coc2c3ccc4c(c3c3oc(-c5ccccc5)nc3c12)CCCC4(C)C	3.51	> 80	
C=C(C)[C@@H]1CC[C@]2(C(=O)NCC(=O)O)CC[C@]3(C)[C@H](CC[C@@H]4[C@@]5(C)Cc6c([nH]c7ccccc67)C(C)(C)[C@@H]5CC[C@]43C)[C@@H]12			IC50 (Alpha-glucosidase [4]): 0.04 µM
Cc1coc2c3ccc4c(c3c3oc(-c5ccccc5F)nc3c12)CCCC4(C)C		< 80	
Cc1coc2c3ccc4c(c3c3oc(-c5ccccc5C(F)(F)F)nc3c12)CCCC4(C)C		< 80	
Cc1coc2c3ccc4c(c3c3oc(-c5ccc(Br)cc5)nc3c12)CCCC4(C)C		< 80	
COc1ccc(-c2nc3c(o2)c2c4c(ccc2c2occ(C)c32)C(C)(C)CCC4)c(OC)c1		< 80	
Cc1coc2c3ccc4c(c3c3oc(-c5ccc(C(F)(F)F)cc5)nc3c12)CCCC4(C)C	2.33	> 80	
Cc1coc2c1C(=O)C(=O)c1c-2ccc2c1CCCC2(C)C [TANSHINONE IIA]	11.39	> 80	
Cc1coc2c3ccc4c(c3c3oc(-c5ccc(Cl)cc5)nc3c12)CCCC4(C)C	3.45	> 80	Ratio IC50 [7]: 30

More lines, main results first:

IC50 (Alpha-glucosidase [2]) [µM]	inhibition [3] [%]	SMILES	other results
3.21	> 80	Cc1coc2c3ccc4c(c3c3oc(Cc5ccc(O)cc5)nc3c12)CCCC4(C)C	
9.46	> 80	Cc1coc2c3ccc4c(c3c3oc(CCc5ccccc5)nc3c12)CCCC4(C)C	
0.73	> 80	Cc1coc2c3ccc4c(c3c3oc(Cc5ccc(O)c(O)c5)nc3c12)CCCC4(C)C	Ki (Alpha-glucosidase [5]): 12.1 µM; inhibition [6]: Active
4.14	> 80	Cc1coc2c3ccc4c(c3c3oc(Cc5ccccc5)nc3c12)CCCC4(C)C	
	< 80	Cc1coc2c3ccc4c(c3c3oc(CCCc5ccccc5)nc3c12)CCCC4(C)C	
	< 80	COc1cc(-c2nc3c(o2)c2c4c(ccc2c2occ(C)c32)C(C)(C)CCC4)ccc1O	
6.67	> 80	Cc1coc2c3ccc4c(c3c3oc(-c5ccc(Cl)c(Cl)c5)nc3c12)CCCC4(C)C	
